What was measured:
BSJ-03-123 [1] = compound: T1, CC(=O)c1c(C)c2cnc(Nc3ccc(N4CCN(CCOCCOCCOCCNC(=O)COc5cccc6c5C(=O)N(C5CCC(=O)NC5=O)C6=O)CC4)cn3)nc2n(C2CCCC2)c1=O [BSJ-03-123]
Taselisib/GDC0032 = compound: Cc1nc(-c2cn3c(n2)-c2ccc(-c4cnn(C(C)(C)C(N)=O)c4)cc2OCC3)n(C(C)C)n1 [Taselisib/GDC0032]
Ceritinib/LDK378 = compound: Cc1cc(Nc2ncc(Cl)c(Nc3ccccc3S(=O)(=O)C(C)C)n2)c(OC(C)C)cc1C1CCNCC1 [Ceritinib/LDK378]
Neratinib/HKI272 [2] = compound: T2, CCOc1cc2ncc(C#N)c(Nc3ccc(OCc4ccccn4)c(Cl)c3)c2cc1NC(=O)/C=C/CN(C)C [Neratinib/HKI272]
Doxorubicin = compound: COc1cccc2c1C(=O)c1c(O)c3c(c(O)c1C2=O)C[C@@](O)(C(=O)CO)C[C@@H]3O[C@H]1C[C@H](N)[C@H](O)[C@H](C)O1 [Doxorubicin]
THZ531 [3] = compound: T3, CN(C)C/C=C/C(=O)Nc1ccc(C(=O)N2CCC[C@@H](Nc3ncc(Cl)c(-c4c[nH]c5ccccc45)n3)C2)cc1 [THZ531]
BSJ-01-175 = compound: CN(C)C/C=C/C(=O)Nc1ccc(O[C@@H]2CCC[C@@H](Nc3ncc(Cl)c(-c4c[nH]c5ccccc45)n3)C2)cc1 [BSJ-01-175]
[4] = compound: CC(=O)Nc1cccc(-n2c(=O)n(C3CC3)c(=O)c3c(Nc4ccc(I)cc4F)n(C)c(=O)c(C)c32)c1
Dasatinib = compound: Cc1nc(Nc2ncc(C(=O)Nc3c(C)cccc3Cl)s2)cc(N2CCN(CCO)CC2)n1 [Dasatinib]
[5] = compound: CO[C@@H](C)Cn1c(=O)n(C)c2cnc3ccc(-c4cncc(C(C)(C)O)c4)cc3c21
Rucaparib = compound: CNCc1ccc(-c2[nH]c3cc(F)cc4c3c2CCNC4=O)cc1 [Rucaparib]
INK128/MLN0128 = compound: CC(C)n1nc(-c2ccc3oc(N)nc3c2)c2c(N)ncnc21 [INK128/MLN0128]
AZD2014 = compound: CNC(=O)c1cccc(-c2ccc3c(N4CCOC[C@@H]4C)nc(N4CCOC[C@@H]4C)nc3n2)c1 [AZD2014]
Vorinostat = compound: O=C(CCCCCCC(=O)Nc1ccccc1)NO [Vorinostat]
Volasertib/BI6727 = compound: CC[C@@H]1C(=O)N(C)c2cnc(Nc3ccc(C(=O)N[C@H]4CC[C@H](N5CCN(CC6CC6)CC5)CC4)cc3OC)nc2N1C(C)C [Volasertib/BI6727]
[6] = compound: CC(=O)c1c(C)c2cnc(Nc3ccc(N4CCNCC4)cn3)nc2n(C2CCCC2)c1=O
BSJ-03-123 [7] = compound: T1, BSJ-03-123; experiment: increase in dead-cell fraction, 72 h; higher = more death;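 further: breast cancer cell lines in 384-well plates, stained with Hoechst plus LIVE/DEAD far red dye and imaged, cells above an LDR intensity threshold counted dead, Hoechst-negative corpses included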
[8] = compound: CCc1cnn2c(NCc3ccc[n+]([O-])c3)cc(N3CCCC[C@H]3CCO)nc12; experiment: as above
THZ1 = compound: CN(C)C/C=C/C(=O)Nc1ccc(C(=O)Nc2cccc(Nc3ncc(Cl)c(-c4c[nH]c5ccccc45)n3)c2)cc1 [THZ1]; experiment: as above
Neratinib/HKI272 [9] = compound: T2, Neratinib/HKI272; experiment: as above
THZ531 [10] = compound: T3, THZ531; experiment: as above
YKL-5-124 = compound: C=CC(=O)Nc1ccc(C(=O)Nc2[nH]nc3c2CN(C(=O)N[C@H](CN(C)C)c2ccccc2)C3(C)C)cc1 [YKL-5-124]; experiment: as above
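Wherever GR50, 72 h is given: breast cancer and non-malignant breast epithelial cell lines, Deep Dye Drop or Dye Drop imaging, nine half-log doses, GR normalized to time-zero plates and DMSO-only controls.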

HCC1419
GR50, 72 h (BSJ-03-123 [1]): 0.491 µM
GR50, 72 h (Taselisib/GDC0032): 0.00918 µM
GR50, 72 h (Ceritinib/LDK378): 2.61 µM
GR50, 72 h (Neratinib/HKI272 [2]): 0.00115 µM
GR50, 72 h (Doxorubicin): 0.0251 µM
GR50, 72 h (THZ531 [3]): 0.162 µM
GR50, 72 h (BSJ-01-175): 0.541 µM
GR50, 72 h [4]: 0.0308 µM
GR50, 72 h (Dasatinib): 0.825 µM
GR50, 72 h [5]: < 0.001 µM
GR50, 72 h (Rucaparib): > 10 µM
GR50, 72 h (INK128/MLN0128): 0.00475 µM
GR50, 72 h (AZD2014): < 0.001 µM
GR50, 72 h (Vorinostat): 1.8 µM
GR50, 72 h (Volasertib/BI6727): 0.0207 µM
GR50, 72 h [6]: 0.462 µM
increase in dead-cell fraction (BSJ-03-123 [7]; 0.001 µM): 0.0036
increase in dead-cell fraction (BSJ-03-123 [7]; 0.003162 µM): 0.0018
increase in dead-cell fraction (BSJ-03-123 [7]; 0.01 µM): 0.0094
increase in dead-cell fraction (BSJ-03-123 [7]; 0.03162 µM): 0.0064
increase in dead-cell fraction (BSJ-03-123 [7]; 0.1 µM): 0.0141
increase in dead-cell fraction (BSJ-03-123 [7]; 0.3162 µM): 0.0138
increase in dead-cell fraction (BSJ-03-123 [7]; 1 µM): 0.0115
increase in dead-cell fraction (BSJ-03-123 [7]; 3.162 µM): 0.0247
increase in dead-cell fraction (BSJ-03-123 [7]; 10 µM): 0.031
increase in dead-cell fraction ([8]; 0.0001 µM): -0.001
increase in dead-cell fraction ([8]; 0.0003162 µM): -0.0047
increase in dead-cell fraction ([8]; 0.001 µM): -0.0035
increase in dead-cell fraction ([8]; 0.003162 µM): -0.0074
increase in dead-cell fraction ([8]; 0.01 µM): -0.001
increase in dead-cell fraction ([8]; 0.03162 µM): 0.0673
increase in dead-cell fraction ([8]; 0.1 µM): 0.324
increase in dead-cell fraction ([8]; 0.3162 µM): 0.371
increase in dead-cell fraction ([8]; 1 µM): 0.369
increase in dead-cell fraction (THZ1; 0.0001 µM): -0.0023
increase in dead-cell fraction (THZ1; 0.0003162 µM): 0.0069
increase in dead-cell fraction (THZ1; 0.001 µM): 0.0008
increase in dead-cell fraction (THZ1; 0.003162 µM): 0.001
increase in dead-cell fraction (THZ1; 0.01 µM): -0.0006
increase in dead-cell fraction (THZ1; 0.03162 µM): -0.0062
increase in dead-cell fraction (THZ1; 0.1 µM): 0.0395
increase in dead-cell fraction (THZ1; 0.3162 µM): 0.147
increase in dead-cell fraction (THZ1; 1 µM): 0.138
increase in dead-cell fraction (Neratinib/HKI272 [9]; 0.0003162 µM): -0.0014
increase in dead-cell fraction (Neratinib/HKI272 [9]; 0.001 µM): 0.0002
increase in dead-cell fraction (Neratinib/HKI272 [9]; 0.003162 µM): 0.0137
increase in dead-cell fraction (Neratinib/HKI272 [9]; 0.01 µM): 0.0803
increase in dead-cell fraction (Neratinib/HKI272 [9]; 0.03162 µM): 0.168
increase in dead-cell fraction (Neratinib/HKI272 [9]; 0.1 µM): 0.238
increase in dead-cell fraction (Neratinib/HKI272 [9]; 0.3162 µM): 0.274
increase in dead-cell fraction (Neratinib/HKI272 [9]; 1 µM): 0.366
increase in dead-cell fraction (Neratinib/HKI272 [9]; 3.162 µM): 0.493
increase in dead-cell fraction (THZ531 [10]; 0.0001 µM): -0.0026
increase in dead-cell fraction (THZ531 [10]; 0.0003162 µM): -0.0053
increase in dead-cell fraction (THZ531 [10]; 0.001 µM): 0.0001
increase in dead-cell fraction (THZ531 [10]; 0.003162 µM): -0.0057
increase in dead-cell fraction (THZ531 [10]; 0.01 µM): -0.0018
increase in dead-cell fraction (THZ531 [10]; 0.03162 µM): -0.001
increase in dead-cell fraction (THZ531 [10]; 0.1 µM): 0.0145
increase in dead-cell fraction (THZ531 [10]; 0.3162 µM): 0.0751
increase in dead-cell fraction (THZ531 [10]; 1 µM): 0.14
increase in dead-cell fraction (YKL-5-124; 0.001 µM): 0.0323
increase in dead-cell fraction (YKL-5-124; 0.003162 µM): 0.0181
increase in dead-cell fraction (YKL-5-124; 0.01 µM): 0.0297
increase in dead-cell fraction (YKL-5-124; 0.03162 µM): 0.0399
increase in dead-cell fraction (YKL-5-124; 0.1 µM): 0.0564
increase in dead-cell fraction (YKL-5-124; 0.3162 µM): 0.0505
increase in dead-cell fraction (YKL-5-124; 1 µM): 0.0568
increase in dead-cell fraction (YKL-5-124; 3.162 µM): 0.0662
increase in dead-cell fraction (YKL-5-124; 10 µM): 0.187

Reference: the supplement of paper PMC9663587
